Data set [1] deals with exploratory behavior of the rat. The following applies: McElroy et al.; cited from earlier work.
A further data set concerns CCK-B receptors. Conditions: cited from earlier work.
Another data set deals with CCK-A receptors. Conditions: cited from earlier work.
For data set [2] the following is noted: Deschodt-Lanckman et al.; cited from earlier work.
Data set [3] concerns CCK-A and CCK-B receptors. The following applies: cited from earlier work.
In the next data set the test system is humans. Conditions: cited from earlier work.
The subject of data set [4] is exploratory behavior of the rat. In words: Exploratory behavior in automated activity cages, novel environment. Type of data set: in vivo, rat (Male Sprague Dawley). As for the experimental part:
(§1) B. The effects of CCK-8 and compound A on the exploratory behavior of the rat were examined in automated activity cages and by direct observation. It is known that exogenous CCK-8 decreases exploratory behavior in rats in a novel environment by accelerating the process of habituation. [See Crawley, Pharm. Biochem & Behav. 20, 23-27 (1984).]
Expt 1. Male Sprague Dawley rats were injected ([…].) with CCK-8 and immediately placed in automated activity cages. Activity was measured for 30 minutes past injection.
Expt 2. Male SD rats were injected (s.c.) with the CCK antagonist compound A (0.0001-10 mg/kg) and immediately placed in the automated activity cages.

In data set [5] the test system is anxiety (mice). The following applies: rodents; Crawley / Jones; cited from earlier work.
Data set [6] relates to anxiety (mice). Kind of data set: Black/white exploration test (anxiolytic activity). Type of data set: in vivo, mouse (male DBA2). From the text: The black/white exploration test [Crawley et al. Pharmacology, Biochemistry and Behav. 13, 167 (1980)] is a simple animal model of anxiety. Rodents placed in a two compartment box which consists of a brightly lit, white painted side and a dimly lit, black painted side, display a marked preference for the black side of the apparatus. This behavior is caused by the aversive properties of the brightly lit, white painted section. Classical anxiolytic drugs [such as diazepam, see Crawley, supra] and novel anxiolytic drugs [such as 5HT3 antagonists, see Jones et al. Br. J. Pharm.
A. Naive male DBA2 mice (25-30) were housed on a reversed light/dark cycle and tested during the dark phase of the cycle under dim red light. The apparatus consisted of an open topped box (40 cm long×27 cm wide×27 cm high) divided into a small area (2/5) and a large area (3/5) by a partition that extended 20 cm above the walls. There was a 7.5×7.5 cm opening in the partition at floor level. The small compartment was painted black and the large compartment white. The floor of each compartment was marked into 9 cm squares. The white compartment was illuminated by a 100 W tungsten bulb 17 cm above the box and the black compartment by a similarly placed 60 W red bulb.
Animals that had been injected with drug or vehicle were placed individually into the centre of the white area and their behavior observed during a 5 minute period by remote video recording. Four behavioral parameters were recorded every minute: the number of exploratory rears in the white and black sections, the number of line crossings in the black and white sections, the number of transitions between the two sections and the time spent in the black and white sections. Animals were tested in treatment groups of 8-10 and vehicle controls were run on each test day. Data were analysed by ANOVA and Dunnetts test.

The test system of data set [7] is exploratory behavior of the rat. In words: Exploration in a novel environment by direct observation (perspex cage). The data set is classed as in vivo. The following applies: 0.1 mg/kg.
Excerpt: as §1
Expt 3. In order to assess further the effect of Compound A on exploration in a novel environment, the motoric hehaviors of rats placed in a perspex cage was recorded by direct observation for a 15 minute period 15 minutes after treatment with Compound A.
Experimenters (unaware of the treatments the animals had received) recorded the frequency and duration of rearing, sniffing, grooming and cage crossing using a keypad interfaced to a BBC microcomputer.

Like-named read-outs stand apart in the source and are kept apart here.

Consider `CNC1=Nc2ccc(Cl)cc2C(c2ccccc2)=[N+]([O-])C1` [chlordiazepoxide], for which the “Spontaneous locomotor activity in rats in a novel environment” value in data set [1] is recorded as “increases spontaneous locomotor activity”.

In the case of `CSCC[C@H](NC(=O)[C@H](Cc1ccc(OS(=O)(=O)O)cc1)NC(=O)[C@@H](N)CC(=O)O)C(=O)NCC(=O)N[C@@H](Cc1c[nH]c2ccccc12)C(=O)N[C@@H](CCSC)C(=O)N[C@@H](CC(=O)O)C(=O)N[C@@H](Cc1ccccc1)C(N)=O` [CCK-8s, H-Asp-Tyr(SO3 H)-Met-Gly-Trp-Met-Asp-Phe-NH2], in the data set on CCK-B receptors, the “Affinity for CCK-B receptors” value is on record as “high affinity”. Moreover, in the data set on CCK-A receptors, the “Affinity for CCK-A receptors” value was “high affinity”. In [2], the Half-life entry was “less than 1 hour”.

For `CSCC[C@H](NC(=O)[C@@H](N)Cc1c[nH]c2ccccc12)C(=O)N[C@@H](CC(=O)O)C(=O)N[C@@H](Cc1ccccc1)C(N)=O` [CCK-4], the “Affinity for CCK-B receptors” value in the data set on CCK-B receptors was “high affinity”. The “Affinity for CCK-A receptors” value in the data set on CCK-A receptors is on record as “lower affinity”. For the same compound, the “Receptor selectivity as agonist” value in [3] is given as “preferential CCK-B receptor agonist”. Further, in the data set on humans (in vivo), the “Effect in humans (panic, gastrointestinal effects)” value is reported as “induce panic”.

As for “CCK-8: exogenous CCK-8, equipotent as an agonist at CCK-A and CCK-B receptors”, the “Receptor selectivity as agonist” value in [3] is “equipotent as an agonist at CCK-A and CCK-B receptors”. Moreover, the Locomotor activity entry in [4] (CCK-8 0.5-16 μg/kg i.p., 30 minutes, F(6,87)=3.21 (p<0.01)) is given as “dose-dependently decreased locomotor activity”. Also, in the data set with humans (studies in humans), the “Effect in humans (panic, gastrointestinal effects)” value was “induced gastrointestinal effects but not panic symptoms”.

Consider `CN1C(=O)CN=C(c2ccccc2)c2cc(Cl)ccc21` [diazepam], for which the “Preference of the animal for the black dimly lit side” value in the data set on anxiety (mice) [5] was “decrease the preference of the animal for the black dimly lit side of the apparatus”.

For `CN1C(=O)[C@@H](NC(=O)c2cc3ccccc3[nH]2)N=C(c2ccccc2)c2ccccc21` [Compound A, 3(S)-(-)-1,3-dihydro-3-(2-indolecarbonylamino)-1-methyl-5-phenyl-2H-1,4-benzodiazepin-2-one], the “Preference for locomotion (line crossings) in the black side” value with anxiety (mice) [6] (0.5, 5.0 and 500 ug/kg) is reported as “abolished the preference for locomotion (line crossings) in the black side”. Also, the “Difference in time spent in the black and white side” value with anxiety (mice) [6] (5.0 and 500 ug/kg) is “abolished”. The same compound had an Active dose range with anxiety (mice) [6] (black/white exploration test, mice) of 0.05 to 5.0 µg/kg. For the same compound, in the data set with anxiety (mice) [6] (doses of 0.05, 0.5, 5.0 and 500 ug/kg), the “Preference for rearing in the black side” value is reported as “significantly decreased the preference for rearing in the black side”. For the same compound, the “Habituation and period of exploratory activity” value in data set [4] (0.0001-10 mg/kg s.c., F(6,124)=2.54, p<0.05) is “delayed habituation and prolonged the period of exploratory activity of the rats”. Moreover, the “Level of activity at 25 minutes” value in data set [4] (0.1 mg/kg s.c., 25 minutes, F(6.124)=3.18, p<0.01) was “significantly above controls”; in data set [4] (doses higher and lower than 0.1 mg/kg, bell-shaped dose response), “no significant effect on activity”. In addition, in data set [7] (F(3,43)=3.79, P<0.05), the Cage crossing entry is on record as “significantly increased”. Also, the Sniffing entry in data set [7] (F(3,43)=3.96, P<0.01) is “significantly increased”. In [7] (F(3,43)=4.77, P<0.01), the Rearing result is recorded as “significantly increased”.
